Results reported in the supplement of paper PMC10331698.
± gives the standard deviation of the averaged measurements.

Columns and labels:
Assay in all cases: level (log10 ratio to DMSO vehicle control); higher = higher biomarker level / cell amount than vehicle control
Octafluoroadipamide = compound: NC(=O)C(F)(F)C(F)(F)C(F)(F)C(F)(F)C(N)=O [Octafluoroadipamide]; conditions: in DMSO
Protocol: (§1)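 BioMAP Diversity Plus panel of 12 human primary cell co-culture systems (3C, 4H, LPS, SAg, BT, BF4T, BE3C, CASM3C, HDF3CGF, KF3CT, MyoF, Mphg). Compounds were added 1 h before stimulation and left for 24 h (MyoF 48 h; BT 72 h for soluble read-outs or 6 d for IgG). Biomarkers were read by ELISA, cytotoxicity by SRB, PBMC viability and proliferation by Alamar Blue. Each well value was divided by the mean of 8 DMSO control wells on the same plate and log10 transformed; duplicate blinded samples were tested at 4 concentrations.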

[1] = compound: FC(F)(F)C(F)(F)C(F)(F)CC1CO1 [1H,1H-Heptafluorobutyl epoxide]; conditions: in DMSO
Protocol: as §1

Heptafluorobutyl iodide = compound: FC(F)(F)C(F)(F)C(F)(F)CI [Heptafluorobutyl iodide]; conditions: in DMSO
Protocol: as §1

Nonafluoropentanamide = compound: NC(=O)C(F)(F)C(F)(F)C(F)(F)C(F)(F)F [Nonafluoropentanamide]; conditions: in DMSO
Protocol: as §1

[2] = compound: COC(=O)C(F)(F)C(F)(F)OC(F)(C(F)(F)F)C(F)(F)OC(F)=C(F)F [Methyl perfluoro(3-(1-ethenyloxypropan-2-yloxy)propanoate)]; conditions: in DMSO
Protocol: as §1

[3] = compound: C=C(C)C(=O)OCCC(F)(F)C(F)(F)C(F)(F)C(F)(F)C(F)(F)C(F)(F)F [6:2 Fluorotelomer methacrylate]; conditions: in DMSO
Protocol: as §1

[4] = compound: O=S(=O)(O)CCC(F)(F)C(F)(F)C(F)(F)C(F)(F)C(F)(F)C(F)(F)F [6:2 Fluorotelomer sulfonic acid]; conditions: in DMSO
Protocol: as §1

[5] = compound: FC(F)(F)C(F)(F)C(F)(F)C(F)(F)C(F)(F)C(F)(F)CC1CO1 [3-(Perfluorohexyl)-1,2-epoxypropane]; conditions: in DMSO
Protocol: as §1

[6] = compound: O=S(=O)(O)C(F)(F)C(F)(F)C(F)(F)C(F)(F)C(F)(F)C(F)(F)C(F)(F)C(F)(F)C(F)(F)C(F)(F)F [Sodium perfluorodecanesulfonate]; conditions: in DMSO
Protocol: as §1

[7] = compound: O=S(=O)(F)C(F)(F)C(F)(F)C(F)(F)C(F)(F)C(F)(F)C(F)(F)C(F)(F)C(F)(F)F [Perfluorooctanesulfonyl fluoride]; conditions: in DMSO
Protocol: as §1

[8] = compound: NC(=O)C(F)(F)C(F)(F)C(F)(F)C(F)F; conditions: in DMSO
Protocol: as §1

Hexafluoroamylene glycol = compound: OCC(F)(F)C(F)(F)C(F)(F)CO [Hexafluoroamylene glycol]; conditions: in DMSO
Protocol: as §1

[9] = compound: O=C(O)C=CC(F)(C(F)(F)F)C(F)(F)F [3-(Perfluoroisopropyl)-2-propenoic acid]; conditions: in DMSO
Protocol: as §1

[10] = compound: NS(=O)(=O)C(F)(F)C(F)(F)C(F)(F)C(F)(F)C(F)(F)C(F)(F)F [Perfluorohexanesulfonamide]; conditions: in DMSO
Protocol: as §1

[11] = compound: C=CC(=O)OCC(F)(F)C(F)(F)C(F)(F)COC(=O)C=C [1H,1H,5H,5H-Perfluoro-1,5-pentanediol diacrylate]; conditions: 6700 nM; in DMSO
Protocol: as §1

[12] = compound: FC(F)(F)C(F)(F)C(F)(F)C(F)(F)C(F)(F)C(F)(F)C(F)(F)I [1-Iodopentadecafluoroheptane]; conditions: in DMSO
Protocol: as §1

[13] = compound: FC(F)(F)C(F)(F)CNCC(F)(F)C(F)(F)F [Bis(1H,1H-perfluoropropyl)amine]; conditions: in DMSO
Protocol: as §1

[14] = compound: O=C(O)C(F)(F)C(F)(F)C(F)(F)C(F)(F)C(F)(F)C(F)(F)C(F)(F)C(F)(F)C(F)(F)C(F)F [11-H-Perfluoroundecanoic acid]; conditions: in DMSO
Protocol: as §1

[15] = compound: O=S(=O)(Cl)C(F)(F)C(F)(F)C(F)(F)C(F)(F)C(F)(F)C(F)(F)C(F)(F)C(F)(F)F [Perfluoro-1-octanesulfonyl chloride]; conditions: in DMSO
Protocol: as §1

4H:SRB
level (log10) (Octafluoroadipamide; 6700 nM): -0.0065 ± 0.022 | level (log10) (Octafluoroadipamide; 20000 nM): -0.001 ± 0.025 | level (log10) (Octafluoroadipamide; 60000 nM): -0.003 ± 0.013 | level (log10) ([1]; 6700 nM): 0.008 ± 0.023 | level (log10) ([1]; 20000 nM): 0.007 ± 0.0057 | level (log10) ([1]; 60000 nM): -0.02 ± 0.0071 | level (log10) (Heptafluorobutyl iodide; 6700 nM): -0.001 ± 0.0028 | level (log10) (Heptafluorobutyl iodide; 20000 nM): 0.0045 ± 0.0064 | level (log10) (Heptafluorobutyl iodide; 60000 nM): 0.011 ± 0.0099 | level (log10) (Nonafluoropentanamide; 6700 nM): -0.0055 ± 0.00071 | level (log10) (Nonafluoropentanamide; 20000 nM): -0.0055 ± 0.011 | level (log10) (Nonafluoropentanamide; 60000 nM): 0.0055 ± 0.021 | level (log10) ([2]; 6700 nM): -0.0015 ± 0.00071 | level (log10) ([2]; 20000 nM): 0.007 ± 0.014 | level (log10) ([3]; 6700 nM): -0.0005 ± 0.0035 | level (log10) ([3]; 20000 nM): 0.0005 ± 0.016 | level (log10) ([3]; 60000 nM): 0.008 ± 0.014 | level (log10) ([4]; 6700 nM): -0.0015 ± 0.0021 | level (log10) ([4]; 20000 nM): 0.0035 ± 0.018 | level (log10) ([4]; 60000 nM): -0.004 ± 0.027 | level (log10) ([5]; 6700 nM): 0.007 ± 0.0028 | level (log10) ([5]; 20000 nM): -0.003 ± 0.0057 | level (log10) ([5]; 60000 nM): 0.015 ± 0.023 | level (log10) ([6]; 1500 nM): -0.003 ± 0.0042 | level (log10) ([6]; 4400 nM): -0.004 ± 0.0071 | level (log10) ([6]; 13000 nM): -0.017 ± 0.0014 | level (log10) ([6]; 40000 nM): -0.023 ± 0.0099 | level (log10) ([7]; 6700 nM): 0.0015 ± 0.00071 | level (log10) ([7]; 20000 nM): 0.001 ± 0.0028 | level (log10) ([7]; 60000 nM): -0.0035 ± 0.0064 | level (log10) ([8]; 6700 nM): -0.0195 ± 0.0078 | level (log10) ([8]; 20000 nM): -0.0055 ± 0.005 | level (log10) ([8]; 60000 nM): -0.017 ± 0.021 | level (log10) (Hexafluoroamylene glycol; 6700 nM): -0.0055 ± 0.0035 | level (log10) (Hexafluoroamylene glycol; 20000 nM): -0.004 ± 0.0071 | level (log10) (Hexafluoroamylene glycol; 60000 nM): 0.005 ± 0.02 | level (log10) ([9]; 6700 nM): 0.001 ± 0.018 | level (log10) ([9]; 20000 nM): -0.0045 ± 0.029 | level (log10) ([9]; 60000 nM): 0.004 ± 0.021 | level (log10) ([10]; 6700 nM): -0.01 ± 0.0085 | level (log10) ([10]; 20000 nM): -0.028 ± 0.0099 | level (log10) ([10]; 60000 nM): -0.101 ± 0.0014 | level (log10) [11]: -0.0105 ± 0.019 | level (log10) ([12]; 6700 nM): 0.0015 ± 0.0092 | level (log10) ([12]; 20000 nM): 0.0125 ± 0.005 | level (log10) ([13]; 6700 nM): -0.0245 ± 0.013 | level (log10) ([13]; 20000 nM): 0 ± 0.017 | level (log10) ([13]; 60000 nM): 0.0015 ± 0.013 | level (log10) ([14]; 6700 nM): 0.0145 ± 0.0092 | level (log10) ([14]; 20000 nM): 0.0105 ± 0.018 | level (log10) ([15]; 6700 nM): -0.0105 ± 0.0078 | level (log10) ([15]; 20000 nM): 0 ± 0.014 | level (log10) ([15]; 60000 nM): -0.0495 ± 0.061

BE3C:CXCL8/IL-8
level (log10) (Octafluoroadipamide; 6700 nM): -0.0565 ± 0.013 | level (log10) (Octafluoroadipamide; 20000 nM): -0.0485 ± 0.026 | level (log10) (Octafluoroadipamide; 60000 nM): -0.034 ± 0.083 | level (log10) ([1]; 6700 nM): 0.01 ± 0.062 | level (log10) ([1]; 20000 nM): 0.0235 ± 0.029 | level (log10) ([1]; 60000 nM): 0.0505 ± 0.081 | level (log10) (Heptafluorobutyl iodide; 6700 nM): 0.029 ± 0.04 | level (log10) (Heptafluorobutyl iodide; 20000 nM): 0.008 ± 0.037 | level (log10) (Heptafluorobutyl iodide; 60000 nM): 0.021 ± 0.021 | level (log10) (Nonafluoropentanamide; 6700 nM): 0.0235 ± 0.019 | level (log10) (Nonafluoropentanamide; 20000 nM): 0.004 ± 0.05 | level (log10) (Nonafluoropentanamide; 60000 nM): 0.0245 ± 0.066 | level (log10) ([2]; 6700 nM): 0.0495 ± 0.0021 | level (log10) ([2]; 20000 nM): 0.09 ± 0.013 | level (log10) ([3]; 6700 nM): 0.05 ± 0.086 | level (log10) ([3]; 20000 nM): 0.0325 ± 0.046 | level (log10) ([3]; 60000 nM): 0.043 ± 0.072 | level (log10) ([4]; 6700 nM): 0.021 ± 0.031 | level (log10) ([4]; 20000 nM): -0.001 ± 0.021 | level (log10) ([4]; 60000 nM): 0 ± 0.021 | level (log10) ([5]; 6700 nM): 0.0215 ± 0.04 | level (log10) ([5]; 20000 nM): 0.01 ± 0.031 | level (log10) ([5]; 60000 nM): 0.0605 ± 0.015 | level (log10) ([6]; 1500 nM): 0.0135 ± 0.0035 | level (log10) ([6]; 4400 nM): 0.0345 ± 0.0021 | level (log10) ([6]; 13000 nM): 0.083 ± 0.021 | level (log10) ([6]; 40000 nM): 0.0225 ± 0.037 | level (log10) ([7]; 6700 nM): 0.0175 ± 0.0021 | level (log10) ([7]; 20000 nM): 0.0295 ± 0.011 | level (log10) ([7]; 60000 nM): 0.0615 ± 0.029 | level (log10) ([8]; 6700 nM): 0.025 ± 0.035 | level (log10) ([8]; 20000 nM): 0.0405 ± 0.0078 | level (log10) ([8]; 60000 nM): 0.0565 ± 0.04 | level (log10) (Hexafluoroamylene glycol; 6700 nM): -0.001 ± 0.031 | level (log10) (Hexafluoroamylene glycol; 20000 nM): -0.003 ± 0.025 | level (log10) (Hexafluoroamylene glycol; 60000 nM): 0.013 ± 0.034 | level (log10) ([9]; 6700 nM): -0.0015 ± 0.035 | level (log10) ([9]; 20000 nM): 0.003 ± 0.0057 | level (log10) ([9]; 60000 nM): 0.0545 ± 0.059 | level (log10) ([10]; 6700 nM): -0.0795 ± 0.044 | level (log10) ([10]; 20000 nM): -0.161 ± 0.0078 | level (log10) ([10]; 60000 nM): -0.3 ± 0.039 | level (log10) [11]: -0.0515 ± 0.04 | level (log10) ([12]; 6700 nM): -0.0175 ± 0.0078 | level (log10) ([12]; 20000 nM): -0.007 ± 0.0057 | level (log10) ([13]; 6700 nM): -0.041 ± 0.073 | level (log10) ([13]; 20000 nM): -0.0325 ± 0.036 | level (log10) ([13]; 60000 nM): -0.008 ± 0.03 | level (log10) ([14]; 6700 nM): -0.0885 ± 0.016 | level (log10) ([14]; 20000 nM): 0.0475 ± 0.05 | level (log10) ([15]; 6700 nM): 0.0065 ± 0.005 | level (log10) ([15]; 20000 nM): -0.0605 ± 0.0021 | level (log10) ([15]; 60000 nM): -0.311 ± 0.17
